These results are taken from publication PMC5218480 (PLoS ONE, 2017).

This assay deals with MV-4-11 cells. Briefly: Gene expression microarray analysis (Affymetrix PrimeView) and GSEA. The assay is classed as cell-based, human. Further details: RFU PODN (11730768_x_at) / Fold change /veh PODN (11730768_x_at) / RFU LINC00158 (11744669_a_at) / Fold change /veh LINC00158 (11744669_a_at) / RFU DUSP10 (11751237_a_at) / Fold change /veh DUSP10 (11751237_a_at) / RFU ID3 (11757404_x_at) / Fold change /veh ID3 (11757404_x_at) / RFU PLEKHG5 (11737974_s_at) / Fold change /veh PLEKHG5 (11737974_s_at) / RFU LRRC4B (11730491_at) / Fold change /veh LRRC4B (11730491_at) / RFU GIMAP4 (11747438_a_at) / Fold change /veh GIMAP4 (11747438_a_at) / RFU KRT8 (11758183_x_at) / Fold change /veh KRT8 (11758183_x_at) / RFU CNN1 (11734310_a_at) / Fold change /veh CNN1 (11734310_a_at) / RFU VPS37D (11726825_at) / Fold change /veh VPS37D (11726825_at) / RFU C10orf10 (11716522_x_at) / Fold change /veh C10orf10 (11716522_x_at) / RFU KIR2DL2 /// KIR2DL4 /// KIR2DL5A /// KIR2DL5B /// KIR2DS1 /// KIR2DS2 /// KIR2DS3 /// KIR2DS4 /// KIR3DL3 /// KIR3DL3 /// KIR3DS1 (11738374_at) / Fold change /veh KIR2DL2 /// KIR2DL4 /// KIR2DL5A /// KIR2DL5B /// KIR2DS1 /// KIR2DS2 /// KIR2DS3 /// KIR2DS4 /// KIR3DL3 /// KIR3DL3 /// KIR3DS1 (11738374_at) / RFU C1QL1 (11718748_at) / Fold change /veh C1QL1 (11718748_at) / RFU TMPRSS4 (11747572_a_at) / Fold change /veh TMPRSS4 (11747572_a_at) / RFU HAMP (11756126_x_at) / Fold change /veh HAMP (11756126_x_at) / RFU RNFT2 (11725882_a_at) / Fold change /veh RNFT2 (11725882_a_at) / RFU NR4A2 (11747474_a_at) / Fold change /veh NR4A2 (11747474_a_at) / RFU ABCC12 (11746883_a_at) / Fold change /veh ABCC12 (11746883_a_at) / RFU TMEM136 (11760407_x_at) / Fold change /veh TMEM136 (11760407_x_at) / RFU CLDN22 /// WWC2 (11732394_at) / Fold change /veh CLDN22 /// WWC2 (11732394_at) / RFU HLA-DPB1 (11760878_x_at) / Fold change /veh HLA-DPB1 (11760878_x_at) / RFU SPINT1 (11716480_a_at) / Fold change /veh SPINT1 (11716480_a_at) / RFU GAP43 (11754022_s_at) / Fold change /veh GAP43 (11754022_s_at) / RFU A4GNT (11735810_at) / Fold change /veh A4GNT (11735810_at) / RFU PRB3 (11715151_x_at) / Fold change /veh PRB3 (11715151_x_at) / RFU TUBB4B (11761932_at) / Fold change /veh TUBB4B (11761932_at) / RFU CAPN14 (11732068_a_at) / Fold change /veh CAPN14 (11732068_a_at) / RFU TMCC2 (11721928_a_at) / Fold change /veh TMCC2 (11721928_a_at) / RFU IRGQ (11745062_a_at) / Fold change /veh IRGQ (11745062_a_at) / RFU FAM174B (11720279_a_at) / Fold change /veh FAM174B (11720279_a_at) / RFU TMPRSS4 (11748680_a_at) / Fold change /veh TMPRSS4 (11748680_a_at) / RFU FAM212B (11763350_a_at) / Fold change /veh FAM212B (11763350_a_at) / RFU PLEKHG5 (11743358_a_at) / Fold change /veh PLEKHG5 (11743358_a_at) / RFU ZSCAN30 (11745921_a_at) / Fold change /veh ZSCAN30 (11745921_a_at) / RFU CMKLR1 (11741424_a_at) / Fold change /veh CMKLR1 (11741424_a_at) / RFU LOC101060620 /// MAPK8IP1 (11723275_at) / Fold change /veh LOC101060620 /// MAPK8IP1 (11723275_at) / RFU SPTSSB (11747773_x_at) / Fold change /veh SPTSSB (11747773_x_at) / RFU PRSS12 (11739890_at) / Fold change /veh PRSS12 (11739890_at) / RFU BIN1 (11741810_x_at) / Fold change /veh BIN1 (11741810_x_at) / RFU WNT11 (11732464_a_at) / Fold change /veh WNT11 (11732464_a_at) / RFU C10orf10 (11716521_a_at) / Fold change /veh C10orf10 (11716521_a_at) / RFU C5orf56 (11738089_at) / Fold change /veh C5orf56 (11738089_at) / RFU CYB561 (11721691_x_at) / Fold change /veh CYB561 (11721691_x_at) / RFU ANKRD19P (11752326_a_at) / Fold change /veh ANKRD19P (11752326_a_at) / RFU OR2T12 /// OR2T33 /// OR2T8 (11738714_s_at) / Fold change /veh OR2T12 /// OR2T33 /// OR2T8 (11738714_s_at) / RFU VCAN (11748164_a_at) / Fold change /veh VCAN (11748164_a_at) / RFU JSRP1 (11732532_at) / Fold change /veh JSRP1 (11732532_at) / RFU KRTAP10-11 (11738290_x_at) / Fold change /veh KRTAP10-11 (11738290_x_at) / RFU MYO3A (11730013_a_at) / Fold change /veh MYO3A (11730013_a_at) / RFU EBF3 (11725865_a_at) / Fold change /veh EBF3 (11725865_a_at) / RFU CAMK2N1 (11719241_x_at) / Fold change /veh CAMK2N1 (11719241_x_at) / RFU C5orf56 (11738088_a_at) / Fold change /veh C5orf56 (11738088_a_at) / RFU OLFML3 (11715873_a_at) / Fold change /veh OLFML3 (11715873_a_at) / RFU LOC100653217 /// NTM (11731650_a_at) / Fold change /veh LOC100653217 /// NTM (11731650_a_at) / RFU MAPK11 (11762145_a_at) / Fold change /veh MAPK11 (11762145_a_at) / RFU FIZ1 (11724087_x_at) / Fold change /veh FIZ1 (11724087_x_at) / RFU OASL (11726364_x_at) / Fold change /veh OASL (11726364_x_at) / RFU SOX15 (11748057_x_at) / Fold change /veh SOX15 (11748057_x_at) / RFU CD79A (11719716_a_at) / Fold change /veh CD79A (11719716_a_at) / RFU HIST1H1D (11736915_at) / Fold change /veh HIST1H1D (11736915_at) / RFU CASKIN2 (11723855_a_at) / Fold change /veh CASKIN2 (11723855_a_at) / RFU LOC730098 (11760151_x_at) / Fold change /veh LOC730098 (11760151_x_at) / RFU OR4N2 (11742367_at) / Fold change /veh OR4N2 (11742367_at) / RFU PRRT2 (11749266_a_at) / Fold change /veh PRRT2 (11749266_a_at) / RFU SNX32 (11753110_a_at) / Fold change /veh SNX32 (11753110_a_at) / RFU CDHR5 (11726645_a_at) / Fold change /veh CDHR5 (11726645_a_at) / RFU RCAN1 (11760418_a_at) / Fold change /veh RCAN1 (11760418_a_at) / RFU FAM167A (11723789_a_at) / Fold change /veh FAM167A (11723789_a_at) / RFU FAM26E (11764081_at) / Fold change /veh FAM26E (11764081_at) / RFU ISYNA1 (11749810_s_at) / Fold change /veh ISYNA1 (11749810_s_at) / RFU ACY1 (11761880_at) / Fold change /veh ACY1 (11761880_at) / RFU 11764098_at / Fold change /veh 11764098_at / RFU SAMD14 (11745864_x_at) / Fold change /veh SAMD14 (11745864_x_at) / RFU NPB (11741838_a_at) / Fold change /veh NPB (11741838_a_at) / RFU TMPRSS6 (11731388_a_at) / Fold change /veh TMPRSS6 (11731388_a_at) / RFU KRTAP10-2 (11738614_at) / Fold change /veh KRTAP10-2 (11738614_at) / RFU ARHGAP8 /// PRR5-ARHGAP8 (11727945_x_at) / Fold change /veh ARHGAP8 /// PRR5-ARHGAP8 (11727945_x_at) / RFU KRTAP5-7 /// NADSYN1 (11734609_at) / Fold change /veh KRTAP5-7 /// NADSYN1 (11734609_at) / RFU RASL12 (11751679_a_at) / Fold change /veh RASL12 (11751679_a_at) / RFU CDKN2B (11736163_a_at) / Fold change /veh CDKN2B (11736163_a_at) / RFU PRF1 (11729649_at) / Fold change /veh PRF1 (11729649_at) / RFU, ZNF638 /// ZNF638-IT1 / Fold change vs veh, ZNF638 /// ZNF638-IT1 / RFU, PANK3 / Fold change vs veh, PANK3 / RFU, SH3YL1 / Fold change vs veh, SH3YL1 / RFU, ZEB2 / Fold change vs veh, ZEB2 / RFU, NRIP1 / Fold change vs veh, NRIP1 / RFU, PTTG1IP / Fold change vs veh, PTTG1IP / RFU, CAPN2 / Fold change vs veh, CAPN2 / RFU, MED14 / Fold change vs veh, MED14 / RFU, SNORA58 / Fold change vs veh, SNORA58 / RFU, C1orf63 / Fold change vs veh, C1orf63 / RFU, LRRFIP1 / Fold change vs veh, LRRFIP1 / RFU, NDUFAF7 / Fold change vs veh, NDUFAF7 / RFU, SLC12A2 / Fold change vs veh, SLC12A2 / RFU, IBTK / Fold change vs veh, IBTK / RFU, ESF1 / Fold change vs veh, ESF1 / Fold change vs veh, TMEM50B / RFU, TAOK1 / Fold change vs veh, TAOK1 / RFU, ACBD3 / Fold change vs veh, ACBD3 / RFU, TMA16 / Fold change vs veh, TMA16 / RFU, RWDD3 / Fold change vs veh, RWDD3 / RFU, BCAT1 / Fold change vs veh, BCAT1 / RFU, EDEM3 / Fold change vs veh, EDEM3 / RFU, TMEM33 / Fold change vs veh, TMEM33 / RFU, WDR75 / Fold change vs veh, WDR75 / RFU, AHCTF1 / Fold change vs veh, AHCTF1 / RFU, TFRC / Fold change vs veh, TFRC / RFU, ZDHHC17 / Fold change vs veh, ZDHHC17 / RFU, NOM1 / Fold change vs veh, NOM1 / RFU, ARL8B / Fold change vs veh, ARL8B / RFU, ZBTB11 / Fold change vs veh, ZBTB11 / RFU, TAMM41 / Fold change vs veh, TAMM41 / RFU, KIAA1704 /// LOC100996395 / Fold change vs veh, KIAA1704 /// LOC100996395 / RFU, ING1 / Fold change vs veh, ING1 / RFU, TRMT61B / Fold change vs veh, TRMT61B / RFU, FUBP3 / Fold change vs veh, FUBP3 / RFU, TP53 / Fold change vs veh, TP53 / RFU, TNKS2 / Fold change vs veh, TNKS2 / RFU, ZFP14 / Fold change vs veh, ZFP14 / RFU, ACTR2 / Fold change vs veh, ACTR2 / RFU, PPP3R1 / Fold change vs veh, PPP3R1 / RFU, PIK3R1 / Fold change vs veh, PIK3R1 / RFU, HNRNPA1 / Fold change vs veh, HNRNPA1 / RFU, RNF170 / Fold change vs veh, RNF170 / RFU, ZNF28 / Fold change vs veh, ZNF28 / RFU, RNGTT / Fold change vs veh, RNGTT / RFU, OGT / Fold change vs veh, OGT / RFU, BRD1 / Fold change vs veh, BRD1 / RFU, MARS / Fold change vs veh, MARS / RFU, ZNF655 / Fold change vs veh, ZNF655 / RFU, FAHD1 / Fold change vs veh, FAHD1 / RFU, BDP1 / Fold change vs veh, BDP1 / RFU, LRRCC1 / Fold change vs veh, LRRCC1 / RFU, ARID1A / Fold change vs veh, ARID1A / RFU, ZNF146 / Fold change vs veh, ZNF146 / RFU, ZNF330 / Fold change vs veh, ZNF330 / RFU, GPN3 / Fold change vs veh, GPN3 / RFU, C9orf123 / Fold change vs veh, C9orf123 / RFU, N4BP2L2 / Fold change vs veh, N4BP2L2 / RFU, ARFIP1 / Fold change vs veh, ARFIP1 / RFU, FAM179B / Fold change vs veh, FAM179B / RFU, BCL10 / Fold change vs veh, BCL10 / RFU, UHRF1BP1L / Fold change vs veh, UHRF1BP1L / RFU, BET1 / Fold change vs veh, BET1 / RFU, CNOT2 / Fold change vs veh, CNOT2 / RFU, ZNF268 / Fold change vs veh, ZNF268 / Fold change vs veh, ZNF507 / RFU, DGCR2 / Fold change vs veh, DGCR2 / RFU, WDSUB1 / Fold change vs veh, WDSUB1 / Fold change vs veh, HSP90B1 /// MIR3652 / RFU, ADSS / Fold change vs veh, ADSS / RFU, GK / Fold change vs veh, GK / RFU, ZNF148 / Fold change vs veh, ZNF148 / RFU, TAF9 / Fold change vs veh, TAF9 / RFU, SLC1A5 / Fold change vs veh, SLC1A5 / RFU, SLMO2 / Fold change vs veh, SLMO2 / RFU, ABCC4 / Fold change vs veh, ABCC4 / RFU, LOC101060439 /// RAP1B / Fold change vs veh, LOC101060439 /// RAP1B / RFU, RFX7 / Fold change vs veh, RFX7 / RFU, GTPBP10 / Fold change vs veh, GTPBP10 / RFU, CNEP1R1 / Fold change vs veh, CNEP1R1 / RFU, BIVM-ERCC5 /// ERCC5 / Fold change vs veh, BIVM-ERCC5 /// ERCC5 / RFU, ILF3 / Fold change vs veh, ILF3 / RFU 11762660_at / Fold change /veh 11762660_at / RFU VCAN (11757783_s_at) / Fold change /veh VCAN (11757783_s_at) / RFU DDX43 (11728927_at) / Fold change /veh DDX43 (11728927_at) / RFU KRT8 (11758188_x_at) / Fold change /veh KRT8 (11758188_x_at) / RFU NKD1 (11759106_at) / Fold change /veh NKD1 (11759106_at) / RFU SRD5A1 (11742802_a_at) / Fold change /veh SRD5A1 (11742802_a_at) / RFU TPSAB1 /// TPSB2 (11721975_s_at) / Fold change /veh TPSAB1 /// TPSB2 (11721975_s_at) / RFU GSTM3 (11746129_a_at) / Fold change /veh GSTM3 (11746129_a_at) / RFU IL23R (11737362_x_at) / Fold change /veh IL23R (11737362_x_at) / RFU TMEM51 (11727254_a_at) / Fold change /veh TMEM51 (11727254_a_at) / RFU PIWIL2 (11732686_x_at) / Fold change /veh PIWIL2 (11732686_x_at) / RFU ORM1 (11744905_x_at) / Fold change /veh ORM1 (11744905_x_at) / RFU CCDC152 (11743942_at) / Fold change /veh CCDC152 (11743942_at) / RFU ECM1 (11717891_a_at) / Fold change /veh ECM1 (11717891_a_at) / RFU IL23R (11748794_a_at) / Fold change /veh IL23R (11748794_a_at) / RFU TNFAIP8L3 (11732012_x_at) / Fold change /veh TNFAIP8L3 (11732012_x_at) / RFU MBOAT4 (11741988_at) / Fold change /veh MBOAT4 (11741988_at) / RFU 11764193_at / Fold change /veh 11764193_at / RFU TMEM53 (11763286_at) / Fold change /veh TMEM53 (11763286_at) / RFU MAGEB2 (11727129_at) / Fold change /veh MAGEB2 (11727129_at) / RFU TMEM200A (11744735_a_at) / Fold change /veh TMEM200A (11744735_a_at) / RFU CCDC152 (11751479_a_at) / Fold change /veh CCDC152 (11751479_a_at) / RFU FAM211A (11726209_a_at) / Fold change /veh FAM211A (11726209_a_at) / RFU RGS16 (11746705_a_at) / Fold change /veh RGS16 (11746705_a_at) / RFU VCAN (11755009_s_at) / Fold change /veh VCAN (11755009_s_at) / RFU RHOB (11743442_s_at) / Fold change /veh RHOB (11743442_s_at) / RFU RGS16 (11720943_a_at) / Fold change /veh RGS16 (11720943_a_at) / RFU RGS16 (11720944_at) / Fold change /veh RGS16 (11720944_at) / RFU, VPS4B / Fold change vs veh, VPS4B / RFU, CREB1 / Fold change vs veh, CREB1 / RFU, DNAJC13 / Fold change vs veh, DNAJC13 / RFU, GNAQ / Fold change vs veh, GNAQ / RFU, CDK5R1 / Fold change vs veh, CDK5R1 / RFU, ZRANB3 / Fold change vs veh, ZRANB3 / RFU, CUL4A / Fold change vs veh, CUL4A / RFU, CCNY / Fold change vs veh, CCNY / RFU, UFL1 / Fold change vs veh, UFL1 / RFU, COG3 / Fold change vs veh, COG3 / RFU, DIAPH2 / Fold change vs veh, DIAPH2 / RFU, SKA2 / Fold change vs veh, SKA2 / RFU, AFF3 / Fold change vs veh, AFF3 / RFU, LMF1 / Fold change vs veh, LMF1 / RFU, IPO11 / Fold change vs veh, IPO11 / RFU, DFFB / Fold change vs veh, DFFB / RFU, FOXP1 / Fold change vs veh, FOXP1 / RFU, CARD8 / Fold change vs veh, CARD8 / RFU, STRN3 / Fold change vs veh, STRN3 / RFU, ADK / Fold change vs veh, ADK / RFU, RASSF2 / Fold change vs veh, RASSF2 / RFU, WIPF1 / Fold change vs veh, WIPF1 / RFU, LARP1B / Fold change vs veh, LARP1B / RFU, RASA1 / Fold change vs veh, RASA1 / RFU, RB1 / Fold change vs veh, RB1 / RFU, PPFIA1 / Fold change vs veh, PPFIA1 / RFU, MAT2A / Fold change vs veh, MAT2A / RFU, CCT5 / Fold change vs veh, CCT5 / RFU, WDR92 / Fold change vs veh, WDR92 / RFU, CUX1 / Fold change vs veh, CUX1 / RFU, TTC7A / Fold change vs veh, TTC7A / RFU, TMEM135 / Fold change vs veh, TMEM135 / RFU, DEPTOR / Fold change vs veh, DEPTOR / RFU, CPM / Fold change vs veh, CPM / RFU, DNAJB6 / Fold change vs veh, DNAJB6 / RFU, CACNA2D3 / Fold change vs veh, CACNA2D3 / RFU, DTX4 / Fold change vs veh, DTX4 / RFU, TFCP2 / Fold change vs veh, TFCP2 / RFU, GMCL1 /// GMCL1P1 / Fold change vs veh, GMCL1 /// GMCL1P1 / RFU, AEBP2 / Fold change vs veh, AEBP2 / RFU, SNHG1 /// SNORD22 /// SNORD25 /// SNORD26 /// SNORD27 /// SNORD28 /// SNORD29 /// SNORD31 / Fold change vs veh, SNHG1 /// SNORD22 /// SNORD25 /// SNORD26 /// SNORD27 /// SNORD28 /// SNORD29 /// SNORD31 / Fold change (Aza/veh), C12orf56 (ProbeSet 11735607_a_at) / Fold change (ACY-1035/veh), C12orf56 (ProbeSet 11735607_a_at) / Fold change (Aza/veh), FGFR1OP (ProbeSet 11751329_s_at) / Fold change (ACY-1035/veh), FGFR1OP (ProbeSet 11751329_s_at) / Fold change (Aza/veh), VPS36 (ProbeSet 11739960_a_at) / Fold change (ACY-1035/veh), VPS36 (ProbeSet 11739960_a_at) / RFU SYPL1 (11715823_x_at) / Fold change /veh SYPL1 (11715823_x_at) / RFU IGFBP7 (11715501_s_at) / Fold change /veh IGFBP7 (11715501_s_at) / RFU REEP3 (11722064_at) / Fold change /veh REEP3 (11722064_at) / RFU IGLL1 (11728026_x_at) / Fold change /veh IGLL1 (11728026_x_at): dose or concentration left out as unconfirmed. Particulars: ProbeSet 11731093_s_at; LIST B.

Molecules are shown by their SMILES.

For the compound `Nc1ccc(-c2cccs2)cc1NC(=O)c1ccc2c(c1)cc(C1CC1)n2CCN1CCOCC1` [ACY-1035], the “Fold change vs veh, BRD1” value worked out at 0.87.
